Results: patent US12480137B2, “Plants having increased tolerance to herbicides” (BASF SE, priority 2014, dated 2025)

Tests used:
Assay type in all cases: in vivo, Arabidopsis thaliana
[1] = tested on: Arabidopsis mutant line Cesa1_G1013R; assay: Growth inhibition of Arabidopsis lines in 48-well plates, tolerance factor from IC50; conditions: growth inhibition seven to ten days after seeding
Source text: (§1) For selection of cellulose biosynthesis inhibitor resistant plants EMS mutagenized seed populations of Arabidopsis thaliana are used. EMS mutagenized seed populations are either bought from Lehle Seeds (1102 South Industrial Blvd. Suite D, Round Rock, Texas USA) or are generated as described elsewhere (Heim D R, et. al. (1989) Plant Physiol. 90: 146-150). Causative mutations in CESA wildtype sequences (e.g. SEQ ID NO: 1 or 3) are identified as described by Scheible W R et. al. (2001, Proc. Natl. Acad. of Sci. 98: 10079-10084), McCourt et. al. (WO2013/142968) or with the use of next generation sequencing methods as described by Austin R S, et. al. (2011) Plant Journal 67: 715-725.
(§2) Selected Arabidopsis thaliana lines were assayed for improved resistance to azines like 6-cyclopentyl-N4-(2,3,4,5,6-pentafluorophenyl)-1,3,5-triazine-2,4-diamine; 6-(1-fluoro-1-methyl-ethyl)-N4-(2,3,4,5,6-pentafluorophenyl)-1,3,5-triazine-2,4-diamine; 6-cyclohexyl-N2-(2,3,4,5,6-pentafluorophenyl)-1,3,5-triazine-2,4-diamine; 6-(2,6-difluorophenyl)-N2-(2,3,5,6-tetrafluorophenyl)-1,3,5-triazine-2,4-diamine; N2-(4-chloro-3,5,6-trifluoro-2-pyridyl)-6-(1-fluoro-1-methyl-ethyl)-1,3,5-triazine-2,4-diamine in 48-well plates. Therefore, M2 or M3 seeds are surface sterilized by stirring for 5 min in ethanol+water (70+30 by volume), rinsing one time with ethanol+water (70+30 by volume) and two times with sterile, deionized water. The seeds are resuspended in 0.1% agar dissolved in water (w/v) Four to five seeds per well are plated on solid nutrient medium consisting of half-strength murashige skoog nutrient solution, pH 5.8 (Murashige and Skoog (1962) Physiologia Plantarum 15: 473-497). Compounds are dissolved in dimethylsulfoxid (DMSO) and added to the medium prior solidification (final DMSO concentration 0.1%). Multi well plates are incubated in a growth chamber at 22° C., 75% relative humidity and 110 μmol Phot*m^−2*s^−1 with 14:10 h light:dark photoperiod. Growth inhibition is evaluated seven to ten days after seeding in comparison to wild type plants. Tolerance factors are calculated based on IC50 values of growth inhibition of transformed versus non-transformed Arabidopsis plants (Table 3).

[2] = tested on: Arabidopsis mutant line Cesa1_P1010L; assay: as above; conditions: growth inhibition seven to ten days after seeding
Source text: as §1, §2

[3] = tested on: wildtype Arabidopsis plants; assay: as above; conditions: growth inhibition seven to ten days after seeding
Source text: as §1, §2

[4] = tested on: Arabidopsis mutant line Cesa1_G1009D; assay: as above; conditions: growth inhibition seven to ten days after seeding
Source text: as §1, §2

[5] = tested on: Arabidopsis mutant line Cesa3_S1040L; assay: as above; conditions: growth inhibition seven to ten days after seeding
Source text: as §1, §2

[6] = tested on: Arabidopsis mutant line Cesa3_S983F; assay: as above; conditions: growth inhibition seven to ten days after seeding
Source text: as §1, §2

[7] = tested on: Arabidopsis mutant line Cesa3_S1037F; assay: as above; conditions: growth inhibition seven to ten days after seeding
Source text: as §1, §2

[8] = tested on: transgenic Arabidopsis plants, construct AtCESA3_S1037F; assay: Growth inhibition of transgenic Arabidopsis in 48-well plates, tolerance factor from IC50; conditions: SEQ ID NO 3, substitution S1037F, growth inhibition seven to ten days after seeding
Source text: (§3) For transformation of Arabidopsis thaliana, wildtype or mutated cellulose synthase sequences based on one of the following sequences SEQ ID NO: 72, 73, 74, 75, 76, or 77, are cloned with standard cloning techniques as described in Sambrook et al. (Molecular cloning (2001) Cold Spring Harbor Laboratory Press) in a binary vector containing resistance marker gene cassette (AHAS) and mutated cellulose synthase sequence (marked as GOI) in between ubiquitin promoter (PcUbi) and nopaline synthase terminator (NOS) sequence. Binary plasmids are introduced to Agrobacterium tumefaciens for plant transformation. Arabidopsis thaliana are transformed with wildtype or mutated cellulose synthase sequences by floral dip method as decribed by McElver and Singh (WO 2008/124495). Transgenic Arabidopsis plants are subjected to TaqMan analysis for analysis of the number of integration loci.
(§4) Transgenic Arabidopsis thaliana plants are assayed for improved tolerance to azine herbicides like e. g. 6-cyclopentyl-N4-(2,3,4,5,6-pentafluorophenyl)-1,3,5-triazine-2,4-diamine in 48-well plates. Therefore, T2 seeds are surface sterilized by stirring for 5 min in ethanol+water (70+30 by volume), rinsing one time with ethanol+water (70+30 by volume) and two times with sterile, deionized water. The seeds are resuspended in 0.1% agar dissolved in water (w/v) Four to five seeds per well are plated on solid nutrient medium consisting of half-strength murashige skoog nutrient solution, pH 5.8 (Murashige and Skoog (1962) Physiologia Plantarum 15: 473-497). Compounds are dissolved in dimethylsulfoxid (DMSO) and added to the medium prior solidification (final DMSO concentration 0.1%). Multi well plates are incubated in a growth chamber at 22° C., 75% relative humidity and 110 μmol Phot*m^−2*s^−1 with 14:10 h light:dark photoperiod. Growth inhibition is evaluated seven to ten days after seeding in comparison to wild type plants. Tolerance factors are calculated based on IC50 values of growth inhibition of transformed versus non-transformed Arabidopsis plants.

[9] = tested on: transgenic Arabidopsis plants, construct AtCESA3_wt; assay: as above; conditions: SEQ ID NO 3, growth inhibition seven to ten days after seeding
Source text: as §3, §4

[10] = tested on: transgenic Arabidopsis plants, construct AtCESA3_S1040L; assay: as above; conditions: SEQ ID NO 3, substitution S1040L, growth inhibition seven to ten days after seeding
Source text: as §3, §4

[11] = tested on: transgenic Arabidopsis plants, construct AtCESA1_G1013R; assay: as above; conditions: SEQ ID NO 1, substitution G1013R, growth inhibition seven to ten days after seeding
Source text: as §3, §4

[12] = tested on: transgenic Arabidopsis plants, construct AtCESA1 wt; assay: as above; conditions: SEQ ID NO 1, growth inhibition seven to ten days after seeding
Source text: as §3, §4

**Q.** What does the source list for `Nc1nc(Nc2c(F)c(F)c(F)c(F)c2F)nc(C2CCCC2)n1` [6-cyclopentyl-N4-(2,3,4,5,6-pentafluorophenyl)-1,3,5-triazine-2,4-diamine]?
**A.** Relative tolerance rate (wildtype = 1.0) [1]: 25; Relative tolerance rate (wildtype = 1.0) [2]: 3; Relative tolerance rate (wildtype = 1.0) [3]: 1; Relative tolerance rate (wildtype = 1.0) [4]: 3; Relative tolerance rate (wildtype = 1.0) [5]: 56; Relative tolerance rate (wildtype = 1.0) [6]: 75; Relative tolerance rate (wildtype = 1.0) [7]: 75; Relative tolerance rate (non-transgenic = 1.0) [8]: 17; Relative tolerance rate (non-transgenic = 1.0) [9]: 1; Relative tolerance rate (non-transgenic = 1.0) [10]: 1; Relative tolerance rate (non-transgenic = 1.0) [11]: 3; Relative tolerance rate (non-transgenic = 1.0) [12]: 1
